According to patent publication US12214021B2 (CHINA AGRICULTURAL UNIVERSITY, priority 2018, dated 2025):

Experiments:
[1] = test system: VDR; assay: effect of p38 and TGF-β/Smads pathway inhibitors on VDR expression promoted by LF; assay type: cell-based; conditions: for effect of inhibitor on the expression of VDR promoted by LF in the cytoplasm: FIG. 17A; for effect of inhibitor on the expression of VDR promoted by LF in nucleus: FIG. 17B
Experimental: In order to verify the mechanism of LF for promoting the high expression of VDR, firstly, inhibitors were used in the cytoplasm to inhibit the extracellular signaling pathway to detect the promotion effect of LF on VDR. The p38 inhibitor SB203580 and the TGF-β/smads pathway inhibitor SB431542 were added to detect the expression of VDR promoted by LF.
Since VDR mainly functions in the nucleus, after inhibiting the pathway using SB203580 and SB431542 inhibitors, the expression of VDR promoted by LF in nucleus was detected.

[2] = test system: osteoblasts; assay: proliferation of osteoblasts promoted by LF (MTT method); assay type: cell-based; conditions: 1 nM together with LF, FIG. 4
Experimental: Based on transcriptome data, the inventors verified that LF can promote the high expression of VDR at both the gene and protein levels. In order to confirm the role of this pathway in the promotion of osteoblast proliferation and differentiation by LF, the inventors first designed a VDR siRNA to achieve the purpose of transiently silencing VDR genes. The principle of siRNA is the post-transcriptional gene silencing mechanism that blocks the expression of corresponding gene. 20 μM VDR siRNA was added to osteoblasts, the proliferation rate of osteoblasts promoted by LF was detected by MTT method, and the ALP activity of osteoblasts promoted by LF was detected by enzyme-linked immunoassay.
The inventors first confirmed that LF promotes the proliferation and differentiation of osteoblasts through the regulation of the VDR pathway using the osteoblast model. Since the osteogenic effect of VDR is mainly achieved by vitamin D, in order to simulate the normal physiological environment, the inventors treated osteoblasts with both 1 nM of […] (the active form of vitamin D) and LF, and then studied the proliferation and differentiation of osteoblasts.

| Structure (SMILES) | effect of inhibitor on the expression of VDR promoted by LF in the cytoplasm [1] | effect of inhibitor on the expression of VDR promoted by LF in nucleus [1] | effect of the presence of 1.25(OH)2D3 on the osteogenic activity of LF [2] |
| --- | --- | --- | --- |
| C[S+]([O-])c1ccc(-c2nc(-c3ccncc3)c(-c3ccc(F)cc3)[nH]2)cc1 (centres unmarked) [SB203580] | no significant effect | no significant effect |  |
| NC(=O)c1ccc(-c2nc(-c3ccc4c(c3)OCO4)c(-c3ccccn3)[nH]2)cc1 [SB431542] | no significant effect | no significant effect |  |
| C=C1/C(=C\C=C2/CCC[C@]3(C)[C@@H]([C@H](C)CCCC(C)(C)O)CC[C@@H]23)C[C@@H](O)C[C@@H]1O [1.25(OH)2D3, reference compound] |  |  | does not affect |
